# Assay results published in patent US20200031858A1, “AVERMECTIN DERIVATIVES AS FXR MODULATORS” (Hepagene Therapeutics, Inc., priority 2017, published 2020).
# Molecular target: T1, FXR-LBD (Farnesoid X Receptor) (Homo sapiens, UniProt Q96RI1)
# T1 construct: Add 5 μl of 4×FXR-LBD to 384 well assay plates; purchased
# T1 sequence (Q96RI1 262-486 limits assumed): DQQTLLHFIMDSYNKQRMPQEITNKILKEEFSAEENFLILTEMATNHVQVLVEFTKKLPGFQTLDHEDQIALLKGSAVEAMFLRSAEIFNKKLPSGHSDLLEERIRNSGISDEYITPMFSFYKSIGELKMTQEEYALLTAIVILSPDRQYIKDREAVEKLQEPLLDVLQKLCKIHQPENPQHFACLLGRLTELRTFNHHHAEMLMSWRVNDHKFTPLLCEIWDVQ
# Assay: LanthaScreen TR-FRET Farnesoid X Receptor Coactivator Assay
# Format: biochemical
# Settings: TR-FRET ratio 520 nm/495 nm; 10 doses, 3-fold serial dilution; GW4064 as positive control
# Description: The compounds of the present technology may be assayed using the following procedure and will be shown to have FXR binding activity.
# LanthaScreen™ TR-FRET Farnesoid X Receptor Coactivator Assay
# GW4064 as a positive control
# • 1. All of compounds were 3-fold serial diluted from 10 mM stock for 10 doses in DMSO. • 2. Dilute each 100× agonist serial dilution to 2× using Complete Coregulator buffer G. • 3. Transfer 10 μl of each of the 2× agonist serial dilutions to 384 well assay plates. • 4. Add 5 μl of 4×FXR-LBD to 384 well assay plates. • 5. Add 5 μl of 4× peptide/4× antibody solution to 384 well assay plates. • 6. Incubate at room temperature protected from light. • 7. Read the plate at wavelengths of 520 nm and 495 nm on Envision 2104 plate reader. • 8. Calculate the TR-FRET ratio by dividing the emission signal at 520 nm by the emission signal at 495 nm. • 9. Calculate EC50 by fitting % Activity values and log of compound concentrations to nonlinear regression (dose response−variable slope) with Graphpad 5.0.
row,Structure (SMILES),EC50
1,CO[C@H]1C[C@H](O[C@H]2[C@H](C)O[C@@H](O[C@@H]3/C(C)=C/C[C@@H]4C[C@@H](C[C@]5(C=C[C@H](C)[C@@H](C6CCCCC6)O5)O4)OC(=O)[C@@H]4C=C(C)C(=NO)[C@H]5OC/C(=C\C=C\[C@@H]3C)[C@]54O)C[C@@H]2OC)O[C@@H](C)[C@@H]1O [Compound 31],10 to 100 nM
2,CO[C@H]1C[C@H](O[C@@H]2/C(C)=C/C[C@@H]3C[C@@H](C[C@]4(C=C[C@H](C)[C@@H](C5CCCCC5)O4)O3)OC(=O)[C@@H]3C=C(C)[C@@H](O)[C@H]4OC/C(=C\C=C\[C@@H]2C)[C@]43O)O[C@@H](C)[C@@H]1O [Compound 32],101 to 300 nM
3,CO[C@H]1C[C@H](O[C@@H]2/C(C)=C/C[C@@H]3C[C@@H](C[C@]4(C=C[C@H](C)[C@@H](C5CCCCC5)O4)O3)OC(=O)[C@@H]3C=C(C)C(=NO)[C@H]4OC/C(=C\C=C\[C@@H]2C)[C@]43O)O[C@@H](C)[C@@H]1O [Compound 33],10 to 100 nM
4,CON=C1C(C)=C[C@H]2C(=O)O[C@H]3C[C@@H](C/C=C(\C)[C@@H](O[C@H]4C[C@H](OC)[C@@H](O)[C@H](C)O4)[C@@H](C)/C=C/C=C4\CO[C@H]1[C@@]42O)O[C@@]1(C=C[C@H](C)[C@@H](C2CCCCC2)O1)C3 [Compound 35],301 to 1000 nM
